Test results from patent publication US5874078A, “Reagent composition of glutamate dehydrogenase from pseudomonas” (Toyo Boseki Kabushiki Kaisha, priority 1994, dated 1999).
Like-named read-outs stand apart in the source and are kept apart here.

Key:
[1] = test system: glutamate dehydrogenase from Pseudomonas sp. 433-3 (FERM P-14092); test: Activation by ADP (reductive amination activity); assay type: biochemical; conditions: pH 8.3, 30° C.
Experimental: (§1) A method of measuring an activity of the glutamate dehydrogenase of the present invention by means of a reductive amination will be as follows.
(§2) The above reaction mixture solution (2.9 ml) is taken in a cuvette and subjected to a preliminary heating at 30° C. for about five minutes. Then the reaction is initiated by adding 0.1 ml of an enzyme solution thereto, decrease in absorbance of 340 nm in a spectrophotometer controlled at 30° C. is recorded for 3-4 minutes and, out of its linear portion, the decrease in the absorbance per minute is determined. A blank test is carried out according to the same operations as above except that 0.1M Tris-HCl buffer (pH: 8.3) is added instead of the enzyme solution. The way of expression of an activity of the glutamate dehydrogenase is in such a manner that the amount of the enzyme by which 1 micromole of NADH is oxidized per minute under the above-mentioned conditions is defined as one unit (U).
(§3) ADP was added to the reagent for measuring the activity of glutamate dehydrogenase of the present invention (a reductive amination) to make it 2.5 mM and the resulting activity was compared with that where nothing was added.

[2] = molecular target: T1, Bovine Liver CLDH (glutamate dehydrogenase derived from bovine liver) (Bos taurus, UniProt P00366); test: Activation by ADP (reductive amination activity); assay type: biochemical; conditions: 2.5 mM ADP, pH 8.3, 30° C., read-out: activity with 2.5 mM ADP (without ADP = 100%)
T1 construct: Bovine Liver CLDH; from tissue; host or cells: bovine liver
Experimental: as §1, §2, §3

[3] = test system: glutamate dehydrogenase from Pseudomonas sp. 433-3 (FERM P-14092); test: Km values of glutamate dehydrogenase; assay type: biochemical
Experimental: as §2, with “The way of expression of an activity of the glutamate dehydrogenase is in such a manner that the amount of the enzyme by which 1 micromole of NADH is oxidized per minute under the above-mentioned conditions is defined as one unit (U).” left out
The above reaction mixture solution (2.9 ml) was taken in a cuvette and subjected to a preliminary heating at 30° C. for about five minutes. Then the reaction was initiated by adding 0.1 ml of an enzyme solution thereto, […] at 30° C. was recorded for 3-4 minutes and, out of its linear portion, the decrease in the absorbance per minute was determined. A blank test was carried out according to the same operations as above except that 0.1M Tris-HCl buffer (pH: 9.0) was added instead of the enzyme solution.

[4] = test system: NAD+-dependent glutamate dehydrogenase (EC 1.4.1.2) from Clostridium sp. SB4; conditions: read-out: Km Value to NH3; Table 3; The Enzymes, 3rd Ed. 11, 293 (1975); cited from earlier work
[5] = test system: NAD+-dependent glutamate dehydrogenase (EC 1.4.1.2) from Synechocystis sp.; conditions: read-out: Km Value to NH3; Table 3; FEBS Lett. 285, 35 (1991); cited from earlier work
[6] = molecular target: NAD+-dependent glutamate dehydrogenase (EC 1.4.1.2) from Peptococcus aerogene (Peptoniphilus asaccharolyticus, UniProt P28997); conditions: read-out: Km Value to NH3; Table 3; Can. J. Microbiol. 18, 881 (1972); cited from earlier work
NAD+-dependent glutamate dehydrogenase (EC 1.4.1.2) from Peptococcus aerogene, sequence (P28997 whole entry): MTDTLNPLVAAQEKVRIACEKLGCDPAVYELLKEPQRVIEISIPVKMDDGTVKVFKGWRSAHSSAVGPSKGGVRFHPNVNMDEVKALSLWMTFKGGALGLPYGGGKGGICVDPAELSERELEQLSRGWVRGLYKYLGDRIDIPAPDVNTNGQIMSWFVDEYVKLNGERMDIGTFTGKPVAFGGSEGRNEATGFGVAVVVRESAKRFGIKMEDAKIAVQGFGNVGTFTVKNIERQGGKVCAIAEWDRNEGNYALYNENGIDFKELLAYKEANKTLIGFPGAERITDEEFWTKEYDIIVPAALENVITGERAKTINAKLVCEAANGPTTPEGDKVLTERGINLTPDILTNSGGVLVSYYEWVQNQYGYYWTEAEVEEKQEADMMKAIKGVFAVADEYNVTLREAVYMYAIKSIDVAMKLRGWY

T1 sequence (P00366 58-558): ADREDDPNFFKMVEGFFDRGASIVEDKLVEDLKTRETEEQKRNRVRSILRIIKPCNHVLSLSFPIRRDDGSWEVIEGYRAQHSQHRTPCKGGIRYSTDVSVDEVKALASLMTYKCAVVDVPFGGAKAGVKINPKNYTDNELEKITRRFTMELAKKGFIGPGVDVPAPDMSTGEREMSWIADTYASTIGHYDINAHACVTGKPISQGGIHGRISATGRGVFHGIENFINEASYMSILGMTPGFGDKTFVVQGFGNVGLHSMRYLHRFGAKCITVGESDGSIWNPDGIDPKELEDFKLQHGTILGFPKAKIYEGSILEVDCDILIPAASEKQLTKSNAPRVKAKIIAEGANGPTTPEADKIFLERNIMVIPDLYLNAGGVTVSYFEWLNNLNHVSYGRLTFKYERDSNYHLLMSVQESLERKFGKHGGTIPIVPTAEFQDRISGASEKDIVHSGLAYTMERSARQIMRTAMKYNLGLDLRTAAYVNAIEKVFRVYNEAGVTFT

Nc1ncnc2c1ncn2[C@@H]1O[C@H](COP(=O)(O)OP(=O)(O)O)[C@@H](O)[C@H]1O [ADP]
activity with 2.5 mM ADP (without ADP = 100%) [1]: 100% | activity at 2500 µM [2]: 145%

N[C@@H](CCC(=O)O)C(=O)O [L-glutamic acid]
Km ([3]; read-out: Km value to L-glutamic acid): 17 mM

NC(=O)C1=CN([C@@H]2O[C@H](COP(=O)(O)OP(=O)(O)OC[C@H]3O[C@@H](n4cnc5c(N)ncnc54)[C@H](O)[C@@H]3O)[C@@H](O)[C@H]2O)C=CC1 [NADH]
Km ([3]; read-out: Km value to NADH): 0.19 mM

NC(=O)c1ccc[n+]([C@@H]2O[C@H](COP(=O)(O)OP(=O)([O-])OC[C@H]3O[C@@H](n4cnc5c(N)ncnc54)[C@H](O)[C@@H]3O)[C@@H](O)[C@H]2O)c1 [NAD^+]
Km ([3]; read-out: Km value to NAD^+): 0.1 mM

N [ammonia]
Km [4]: 320 µM | Km ([3]; Table 3, This Invention, read-out: Km Value to NH3): 8.5 mM | Km ([3]; read-out: Km value to ammonia): 8.5 mM | Km [5]: 4.5 mM | Km [6]: 18.4 mM
